≈ marks a conversion by molar mass, not a printed value. *1 amine or outer side, *2 acyl side, *3 side chain or, on linkers, in order; H or OH if unused. Where a SMILES comes first, the peptide text is derived from it. [ ]: non-standard residue; d: D form. X1 = CCCCCC(O)CC(N[*:1])C(O)C(=O)[*:2]; d(aIle) = CC[C@H](C)[C@@H](N)C(=O)O; Dhb = C/C=C(\N)C(=O)O
Key:
Experiment in all cases: microbe, parasite or virus in culture
Assay type in all cases: cell-based
[1] = system: Alternaria alternata
Description: (§1) Furthermore, compound 1 was evaluated for its antimicrobial activity against five bacterial isolates; S. aureus (CCM3824), B. subtilis (CCM1999), S. sanguinis (CCM4047), P. aeruginosa (CCM1959), E. coli (CCM2024), and eight fungal isolates; C. friedrichii (BCC020_2879), A. fumigatus (BCC020_2845), F. oxysporum (BCC020_2866), T. harzianum (BCC020_0606), B. sorokiniana (BCC020_1571), M. cucumerina (BCC020_2872), C. globosum (BCC020_2527), and A. alternata (BCC020_0609) using broth two-fold microdilution method following the standard protocol. Briefly, for broth microdilution method, the compounds were serially diluted at varying concentrations between 300 and 0.0732 µg/mL in Mueller Hinton broth (for bacteria) and Muller Hinton broth with 2% glucose (for fungi) in 96-well plates. Culture broth (0.1 mL) was added to each well containing the compound. Plates were incubated aerobically at 37 °C for 16 h (bacteria) and 30 °C for 48 h (for fungi). Negative controls were prepared separately with respective organisms in the same culture media with methanol (the dissolving solvent). Positive controls were also prepared separately with respective organisms. Erythromycin (32–0.0625 µg/mL) was used as positive control for S. aureus and S. sanguinis, gentamycin (32–0.0625 µg/mL) was used as positive control for Bacillus subtilis, E. coli, and P. aeruginosa, whereas fluconazole (32–0.0625 µg/mL) was used as positive control for all the fungal isolates. After incubation, the well with the least concentration of the compound showing any inhibition in the growth was taken as the MIC value for the respective organisms. MIC95 was determined as the concentration required to inhibit or kill 95% of bacterial isolates spectroscopically at 600 nm. Minimum fungicidal concentration (MFCs) were determined after 48 h incubation by removing 10 µL of the contents from wells showing no visible growth and spreading them on to Sabouraud dextrose agar plates. The plates were then incubated for 72 h and MFCs were determined as the concentrations which killed 95–100% of the inoculum. All the experiments were done in triplicate.

[2] = system: Aspergillus fumigatus
Description: as §1

[3] = system: Candida friedrichii
Description: as §1

[4] = system: Chaetomium globosum
Description: as §1

[5] = system: Fusarium oxysporum
Description: as §1

[6] = system: Monographella cucumerina
Description: as §1

[7] = system: Trichoderma harzianum
Description: as §1

C/C=C1\NC(=O)[C@H](CO)NC(=O)[C@@H]([C@@H](C)CC)NC(=O)[C@H](Cc2ccccc2)NC(=O)[C@@H]2CCCN2C(=O)CNC(=O)[C@@H](CCC(N)=O)NC(=O)C(O)C(CC(O)CCCCC)NC(=O)[C@@H]2CCCN2C(=O)[C@@H]([C@@H](C)CC)NC(=O)[C@H](CO)NC1=O (some centres unmarked) [compound 2, muscotoxin A] (cyclo([Dhb]S[d(aIle)]P[X1][dQ]GPF[d(aIle)]S))
MIC ([1]; A. alternata BCC020_0609, Muller Hinton broth with 2% glucose, 300–0.0732 µg/mL (control 32–0.0625), 30 °C 48 h, triplicate, least concentration showing any inhibition): 0.58 µg/mL (≈ 0.479 µM) | MFC ([1]; A. alternata, 10 µL from wells without visible growth after 48 h spread on Sabouraud dextrose agar, 72 h, kills 95–100% of the inoculum): 75 µg/mL (≈ 61.9 µM) | MIC ([2]; A. fumigatus BCC020_2845, Muller Hinton broth with 2% glucose, 300–0.0732 µg/mL (control 32–0.0625), 30 °C 48 h, triplicate, least concentration showing any inhibition): 2.34 µg/mL (≈ 1.93 µM) | MFC ([2]; A. fumigatus, 10 µL from wells without visible growth after 48 h spread on Sabouraud dextrose agar, 72 h, kills 95–100% of the inoculum): 37.5 µg/mL (≈ 31 µM) | MIC ([3]; C. friedrichii BCC020_2879, Muller Hinton broth with 2% glucose, 300–0.0732 µg/mL (control 32–0.0625), 30 °C 48 h, triplicate, least concentration showing any inhibition): 75 µg/mL (≈ 61.9 µM) | MFC ([3]; C. friedrichii, 10 µL from wells without visible growth after 48 h spread on Sabouraud dextrose agar, 72 h, kills 95–100% of the inoculum): <300 µg/mL | MIC ([4]; C. globosum BCC020_2527, Muller Hinton broth with 2% glucose, 300–0.0732 µg/mL (control 32–0.0625), 30 °C 48 h, triplicate, least concentration showing any inhibition): 18.75 µg/mL (≈ 15.5 µM) | MFC ([4]; C. globosum, 10 µL from wells without visible growth after 48 h spread on Sabouraud dextrose agar, 72 h, kills 95–100% of the inoculum): <300 µg/mL | MIC ([5]; F. oxysporum BCC020_2866, Muller Hinton broth with 2% glucose, 300–0.0732 µg/mL (control 32–0.0625), 30 °C 48 h, triplicate, least concentration showing any inhibition): 75 µg/mL (≈ 61.9 µM) | MFC ([5]; F. oxysporum, 10 µL from wells without visible growth after 48 h spread on Sabouraud dextrose agar, 72 h, kills 95–100% of the inoculum): <300 µg/mL | MIC ([6]; M. cucumerina BCC020_2872, Muller Hinton broth with 2% glucose, 300–0.0732 µg/mL (control 32–0.0625), 30 °C 48 h, triplicate, least concentration showing any inhibition): 2.34 µg/mL (≈ 1.93 µM) | MFC ([6]; M. cucumerina, 10 µL from wells without visible growth after 48 h spread on Sabouraud dextrose agar, 72 h, kills 95–100% of the inoculum): 75 µg/mL (≈ 61.9 µM) | MIC ([7]; T. harzianum BCC020_0606, Muller Hinton broth with 2% glucose, 300–0.0732 µg/mL (control 32–0.0625), 30 °C 48 h, triplicate, least concentration showing any inhibition): 37.5 µg/mL (≈ 31 µM) | MFC ([7]; T. harzianum, 10 µL from wells without visible growth after 48 h spread on Sabouraud dextrose agar, 72 h, kills 95–100% of the inoculum): 300 µg/mL (≈ 248 µM)

— publication PMC6222847, “Application of HPCCC Combined with Polymeric Resins and HPLC for the Separation of Cyclic Lipopeptides Muscotoxins A–C and Their Antimicrobial Activity” (Molecules : A Journal of Synthetic Chemistry and Natural …, 2018)
